Results: PubChem BioAssay AID256 (DTP/NCI, 2004)
Toxic doses and inconclusive results are not listed. Rule for the calls: active = survival T/C of 150% or more; inactive = T/C below 125% in these data.

Tested on: CD2F1 mice, L1210 leukemia ip, survival T/C
Experiment: NCI In Vivo Anticancer Drug Screen. Data for tumor model L1210 Leukemia (intraperitoneal) in CD2F1 (CDF1) mice
Settings: higher = longer survival
Outline: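 Vehicle-treated tumor-bearing mice served as controls (C) for compound-treated mice (T). Reported figure is T divided by C.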

[1] = endpoint: mean survival time, dose: 100.0 mg/kg/injection, schedule: Q04DX002 (ip), vehicle: saline with Tween-80
[2] = endpoint: mean survival time, dose: 200.0 mg/kg/injection, schedule: Q04DX002 (ip), vehicle: saline with Tween-80
[3] = endpoint: mean survival time, dose: 400.0 mg/kg/injection, schedule: Q04DX002 (ip), vehicle: saline with Tween-80
[4] = endpoint: mean survival time, dose: 200.0 mg/kg/injection, schedule: Q01DX001 (ip), vehicle: saline with Tween-80
[5] = endpoint: mean survival time, dose: 100.0 mg/kg/injection, schedule: Q01DX009 (ip), vehicle: saline with Tween-80
[6] = endpoint: mean survival time, dose: 100.0 mg/kg/injection, schedule: Q04DX003 (ip), vehicle: saline with Tween-80
[7] = endpoint: mean survival time, dose: 200.0 mg/kg/injection, schedule: Q01DX009 (ip), vehicle: saline with Tween-80
[8] = endpoint: mean survival time, dose: 200.0 mg/kg/injection, schedule: Q04DX003 (ip), vehicle: saline with Tween-80
[9] = endpoint: mean survival time, dose: 400.0 mg/kg/injection, schedule: Q01DX009 (ip), vehicle: saline with Tween-80
[10] = endpoint: mean survival time, dose: 400.0 mg/kg/injection, schedule: Q04DX003 (ip), vehicle: saline with Tween-80

Measured: T/C

O=C(COc1ccc(F)cc1F)OC(=O)Cc1ccc(Br)cc1
inactive: [1] 101 % of control | [2] 105 % of control | [3] 86 % of control

CCC(=O)Nc1nn[nH]n1
inactive: [1] 105 % of control | [2] 102 % of control | [3] 94 % of control

Clc1ccccc1N=Cc1ccc2c(c1)OCO2
inactive: endpoint: mean survival time, dose: 100.0 mg/kg/injection, schedule: Q01DX009 (ip), vehicle: Klucel (hydroxypropylcellulose) (HPC) 105 % of control | endpoint: mean survival time, dose: 100.0 mg/kg/injection, schedule: Q04DX003 (ip), vehicle: alcohol 103 % of control | endpoint: mean survival time, dose: 200.0 mg/kg/injection, schedule: Q01DX009 (ip), vehicle: Klucel (hydroxypropylcellulose) (HPC) 100 % of control | endpoint: mean survival time, dose: 200.0 mg/kg/injection, schedule: Q04DX003 (ip), vehicle: alcohol 109 % of control | endpoint: mean survival time, dose: 400.0 mg/kg/injection, schedule: Q01DX009 (ip), vehicle: Klucel (hydroxypropylcellulose) (HPC) 100 % of control | endpoint: mean survival time, dose: 400.0 mg/kg/injection, schedule: Q04DX003 (ip), vehicle: alcohol 105 % of control

c1ccc2c(c1)-c1ccccc1C1NC21 (configuration not stated)
inactive: endpoint: median survival time, dose: 6.25 mg/kg/injection, schedule: Q01DX009 (ip), vehicle: saline with Tween-80 112 % of control | endpoint: median survival time, dose: 12.5 mg/kg/injection, schedule: Q01DX009 (ip), vehicle: saline with Tween-80 108 % of control | endpoint: median survival time, dose: 25.0 mg/kg/injection, schedule: Q01DX009 (ip), vehicle: saline with Tween-80 120 % of control

O=P1(c2ccccc2)NCC(Br)CO1 (configuration not stated)
inactive: endpoint: mean survival time, dose: 31.3 mg/kg/injection, schedule: Q01DX001 (ip), vehicle: other 95 % of control | endpoint: mean survival time, dose: 62.5 mg/kg/injection, schedule: Q01DX001 (ip), vehicle: other 95 % of control | endpoint: mean survival time, dose: 125.0 mg/kg/injection, schedule: Q01DX001 (ip), vehicle: other 100 % of control | endpoint: mean survival time, dose: 250.0 mg/kg/injection, schedule: Q01DX001 (ip), vehicle: other 100 % of control | endpoint: mean survival time, dose: 500.0 mg/kg/injection, schedule: Q01DX001 (ip), vehicle: other 95 % of control

O=C1c2ccccc2C(=O)c2c(O)c(S(=O)(=O)O)cc(O)c21
inactive: endpoint: mean survival time, dose: 100.0 mg/kg/injection, schedule: Q04DX003 (ip), vehicle: saline 93 % of control | endpoint: mean survival time, dose: 200.0 mg/kg/injection, schedule: Q04DX003 (ip), vehicle: saline 96 % of control

CC(=O)OC1=C(C)C(c2ccc(C)cc2)OC1=O (configuration not stated)
inactive: endpoint: mean survival time, dose: 12.5 mg/kg/injection, schedule: Q01DX009 (ip), vehicle: other 101 % of control | endpoint: mean survival time, dose: 25.0 mg/kg/injection, schedule: Q01DX009 (ip), vehicle: other 106 % of control | endpoint: mean survival time, dose: 50.0 mg/kg/injection, schedule: Q01DX009 (ip), vehicle: other 110 % of control | endpoint: mean survival time, dose: 100.0 mg/kg/injection, schedule: Q01DX009 (ip), vehicle: other 104 % of control | endpoint: mean survival time, dose: 200.0 mg/kg/injection, schedule: Q01DX009 (ip), vehicle: other 104 % of control

NC1=C(Br)C(=O)C(=O)c2ccccc21
inactive: endpoint: mean survival time, dose: 100.0 mg/kg/injection, schedule: Q01DX001 (ip), vehicle: saline with Tween-80 101 % of control | [4] 101 % of control | endpoint: mean survival time, dose: 400.0 mg/kg/injection, schedule: Q01DX001 (ip), vehicle: saline with Tween-80 97 % of control

O=C(O)CCCCCc1ccccc1
inactive: [5] 96 % of control | [6] 102 % of control | [7] 95 % of control | [8] 91 % of control | [9] 101 % of control | [10] 101 % of control

O=C(c1ccc(Cl)cc1)C1CC(Br)C(Br)CC1C(=O)c1ccc(Cl)cc1 (configuration not stated)
inactive: [5] 96 % of control | [6] 101 % of control | [7] 98 % of control | [8] 98 % of control | [9] 100 % of control | [10] 98 % of control

COc1ccccc1NC(=O)OCC(Cl)(Cl)Cl
inactive: [1] 103 % of control | [2] 100 % of control | [3] 95 % of control

Nc1nc(=O)n(CCCOc2ccc([N+](=O)[O-])c(Cl)c2)cc1-c1ccc(Cl)c(Cl)c1
inactive: [4] 90 % of control

O=C(CC(Cl)c1ccccc1)c1ccccc1 (configuration not stated)
inactive: [5] 91 % of control | [6] 94 % of control | [7] 96 % of control | [8] 98 % of control | [9] 91 % of control | [10] 90 % of control
